The values that follow come from ChEMBL document CHEMBL1914304 (J Med Chem, 2011).

In data set [1] the test system is Raji. Nature of the data set: Cytotoxicity against human Raji cells after 72 hrs by luminescence assay. It is filed as cell-based.
In data set [2] the test system is BJ. Nature of the data set: Cytotoxicity against human BJ cells after 72 hrs by luminescence assay. Type of data set: cell-based.
Data set [3] relates to HEK293. Nature of the data set: Cytotoxicity against human HEK293 cells after 72 hrs by luminescence assay. It is filed as cell-based. Particulars: hek293, 72 h.
Data set [4] concerns HepG2. Nature of the data set: Cytotoxicity against human HepG2 cells after 72 hrs by luminescence assay. It is filed as cell-based. Particulars: hepg2, 72 h.
A short description of data set [5]: Selectivity ratio of EC50 for human HepG2 cells to EC50 for Plasmodium falciparum.

Turning to `Cl.O=C(/C=C/c1ccccc1)c1ccccc1O`, the Activity entry in data set [1], in data set [2], in data set [3] and in data set [4] was “Non-toxic” each time. The selectivity ratio in data set [5] was more than 10.

Consider `Cl.O=C(/C=C/c1ccccc1)c1cc(F)ccc1O`, for which the Activity entry in data set [1], in data set [2], in data set [3] and in data set [4] was “Non-toxic” throughout. For the same compound, the selectivity ratio in data set [5] is more than 10.

Regarding `Cl.O=C(/C=C/c1ccc(F)cc1)c1ccccc1O`, the Activity entry in data set [1], in data set [2], in data set [3] and in data set [4] was “Non-toxic” each time. Besides, the selectivity ratio in data set [5] is more than 10.

Turning to `Cl.O=C(/C=C/c1ccc(F)cc1)c1cc(F)ccc1O`, the Activity entry in data set [1], in data set [2], in data set [3] and in data set [4] was “Non-toxic” each time. Also, the selectivity ratio in data set [5] was more than 10.

Turning to `Cl.O=C(CCc1ccccc1)c1ccccc1O`, the Activity result in data set [1], in data set [2], in data set [3] and in data set [4] was “Non-toxic” each time. Besides, the selectivity ratio in data set [5] was more than 10.

`Cl.O=C(CCc1ccccc1)c1cc(F)ccc1O`: the Activity entry in data set [1], in data set [2], in data set [3] and in data set [4] was “Non-toxic” each time. For the same compound, the selectivity ratio in data set [5] is more than 10.

Take `Cl.O=C(CCc1ccc(F)cc1)c1ccccc1O`: the Activity result in data set [1], in data set [2], in data set [3] and in data set [4] was “Non-toxic” throughout. Besides, the selectivity ratio in data set [5] is more than 10.

As for `Cl.O=C(CCc1ccc(F)cc1)c1cc(F)ccc1O`, the Activity result in data set [1], in data set [2], in data set [3] and in data set [4] was “Non-toxic” throughout. Also, the selectivity ratio in data set [5] is more than 10.

As for `Cl.O=C(CCc1ccc(F)cc1)c1cc(F)ccc1OCC(O)CN1CCN(c2ccc(Cl)c(Cl)c2)CC1` (racemic), the Activity entry in data set [1], in data set [2], in data set [3] and in data set [4] was “Non-toxic” throughout. In data set [5], the selectivity ratio is more than 10.

Turning to `Cl.O=C(CCc1ccc(F)cc1)c1cc(F)ccc1OCC(O)CN1CCN(c2ccccc2F)CC1` (racemic), the Activity entry in data set [1], in data set [2], in data set [3] and in data set [4] was “Non-toxic” throughout. For the same compound, the selectivity ratio in data set [5] is more than 10.

Regarding `Cl.O=C(CCc1ccc(F)cc1)c1cc(F)ccc1OCC(O)CN1CCN(c2ccc(F)cc2)CC1` (racemic), the Activity entry in data set [1], in data set [2], in data set [3] and in data set [4] was “Non-toxic” each time. Also, the selectivity ratio in data set [5] was more than 10.

For the compound `Cl.O=C(CCc1ccc(F)cc1)c1cc(F)ccc1OCC(O)CN1CCN(c2ccc([N+](=O)[O-])cc2)CC1` (racemic), the Activity result in data set [1], in data set [2], in data set [3] and in data set [4] was “Non-toxic” in each case. Besides, in data set [5], the selectivity ratio was more than 10.

Consider `Cl.Nc1ccc(N2CCN(CC(O)COc3ccc(F)cc3C(=O)CCc3ccc(F)cc3)CC2)cc1` (racemic), for which the Activity entry in data set [1], in data set [2], in data set [3] and in data set [4] was “Non-toxic” in each case. In addition, the selectivity ratio in data set [5] was more than 10.

As for `Cl.O=C(CCc1ccc(F)cc1)c1cc(F)ccc1OCC(O)CN1CCN(c2ccc(O)cc2)CC1` (racemic), the Activity entry in data set [1], in data set [2], in data set [3] and in data set [4] was “Non-toxic” each time. In data set [5], the selectivity ratio is more than 10.

Take `Cl.O=C(CCc1ccc(F)cc1)c1cc(F)ccc1OCC(O)CN1CCN(c2ccc(C(F)(F)F)cc2)CC1` (racemic): the Activity entry in data set [1], in data set [2], in data set [3] and in data set [4] was “Non-toxic” throughout. The selectivity ratio in data set [5] is more than 10.

Take `Cl.O=C(CCc1ccc(F)cc1)c1cc(F)ccc1OCC(O)CN1CCN(C(=O)c2ccccc2)CC1` (racemic): the Activity result in data set [1], in data set [2], in data set [3] and in data set [4] was “Non-toxic” each time. Further, the selectivity ratio in data set [5] was more than 10.

For `Cl.O=C(CCc1ccc(F)cc1)c1cc(F)ccc1OCC(O)CN1CCN(C(c2ccccc2)c2ccccc2)CC1` (racemic), the Activity entry in data set [1], in data set [2], in data set [3] and in data set [4] was “Non-toxic” in each case. Further, in data set [5], the selectivity ratio was more than 10.

`CN1CCN(CC(O)COc2ccc(F)cc2C(=O)CCc2ccc(F)cc2)CC1.Cl` (racemic): the Activity result in data set [1], in data set [2], in data set [3] and in data set [4] was “Non-toxic” throughout. Besides, the selectivity ratio in data set [5] was more than 10.

As to `CCN1CCN(CC(O)COc2ccc(F)cc2C(=O)CCc2ccc(F)cc2)CC1.Cl` (racemic), the Activity entry in data set [1], in data set [2], in data set [3] and in data set [4] was “Non-toxic” throughout. For the same compound, the selectivity ratio in data set [5] was more than 10.

Take `Cl.O=C(CCc1ccc(F)cc1)c1cc(F)ccc1OCC(O)CN1CCOCC1` (racemic): the Activity entry in data set [1], in data set [2], in data set [3] and in data set [4] was “Non-toxic” throughout. Further, the selectivity ratio in data set [5] was more than 10.

In the case of `Cl.O=C(CCc1ccccc1)c1ccccc1OCC(O)Cn1ccc2ccccc21` (racemic), the Activity entry in data set [1], in data set [2], in data set [3] and in data set [4] was “Non-toxic” in each case. The selectivity ratio in data set [5] is more than 10.

On to `CC(C)c1nccn1CC(O)COc1ccccc1C(=O)CCc1ccccc1.Cl` (racemic), for which the Activity result in data set [1], in data set [2], in data set [3] and in data set [4] was “Non-toxic” each time. Besides, the selectivity ratio in data set [5] was more than 10.

For the compound `Cl.O=C(CCc1ccccc1)c1ccccc1OCC(O)CC1CCCC1` (racemic), the Activity entry in data set [1], in data set [2], in data set [3] and in data set [4] was “Non-toxic” throughout. Moreover, in data set [5], the selectivity ratio is more than 10.

For `Cl.O=C(CCc1ccc(F)cc1)c1ccccc1OCC(O)Cn1ccc2ccccc21` (racemic), the Activity entry in data set [1], in data set [2], in data set [3] and in data set [4] was “Non-toxic” in each case. Also, the selectivity ratio in data set [5] is more than 10.

As for `CC(C)c1nccn1CC(O)COc1ccccc1C(=O)CCc1ccc(F)cc1.Cl` (racemic), the Activity result in data set [1], in data set [2], in data set [3] and in data set [4] was “Non-toxic” throughout. Besides, the selectivity ratio in data set [5] is more than 10.

For `Cl.O=C(CCc1ccc(F)cc1)c1ccccc1OCC(O)CC1CCCC1` (racemic), the Activity result in data set [1], in data set [2], in data set [3] and in data set [4] was “Non-toxic” in each case. The selectivity ratio in data set [5] was more than 10.

Take `Cl.O=C(CCc1ccccc1)c1cc(F)ccc1OCC(O)Cn1ccc2ccccc21` (racemic): the Activity result in data set [1], in data set [2], in data set [3] and in data set [4] was “Non-toxic” in each case. In addition, the selectivity ratio in data set [5] is more than 10.

`CC(C)c1nccn1CC(O)COc1ccc(F)cc1C(=O)CCc1ccccc1.Cl` (racemic): the Activity entry in data set [1], in data set [2], in data set [3] and in data set [4] was “Non-toxic” throughout. Also, in data set [5], the selectivity ratio is more than 10.

As for `Cl.O=C(CCc1ccccc1)c1cc(F)ccc1OCC(O)CC1CCCC1` (racemic), the Activity result in data set [1], in data set [2], in data set [3] and in data set [4] was “Non-toxic” in each case. For the same compound, the selectivity ratio in data set [5] was more than 10.

Turning to `Cl.O=C(CCc1ccc(F)cc1)c1cc(F)ccc1OCC(O)Cn1ccc2ccccc21` (racemic), the Activity entry in data set [1], in data set [2], in data set [3] and in data set [4] was “Non-toxic” each time. Further, the selectivity ratio in data set [5] was more than 10.

With `CC(C)c1nccn1CC(O)COc1ccc(F)cc1C(=O)CCc1ccc(F)cc1.Cl` (racemic), the Activity result in data set [1], in data set [2], in data set [3] and in data set [4] was “Non-toxic” throughout. Besides, the selectivity ratio in data set [5] was more than 10.

For the compound `Cl.O=C(CCc1ccc(F)cc1)c1cc(F)ccc1OCC(O)CC1CCCC1` (racemic), the Activity result in data set [1], in data set [2], in data set [3] and in data set [4] was “Non-toxic” throughout. Further, in data set [5], the selectivity ratio is more than 10.
